# Reference: patent US20130289089A1, “Pharmaceutical Compositions for Topical Delivery of Photosensitizers and Uses Thereof” (priority 2011, published 2013)
# Assays:
# Assay type in all cases: physicochemical
# [1] = Solubility of lemuteporfin in various solvents (HPLC analysis)
# Description: The solubility of lemuteporfin in various solvent compositions is shown in the last column of Table 2. All values were obtained analytically by HPLC analysis.
# Solubility results for lemuteporfin indicated maximum solubility in solvent-based formulations containing primarily benzyl alcohol. […] The addition of other solvents reduced solubility by approximately the amount of the new solvent introduced. Diethylene glycol monoethyl ether (DGME) is about 20% as efficient at dissolving lemuteporfin as benzyl alcohol.
# [2] = Solubility of lemuteporfin in the LTS formulation (stirred, sampled, filtered)
# Procedure: LTS was prepared by adding lemuteporfin to the other components in Table 4 (already pre-mixed) at room temperature. The solution was stirred and samples were removed at various time points, and filtered to determine the amount of undissolved lemuteporfin. The amount of lemuteporfin that dissolved was approximately 0.048%.
# Studies were conducted to determine the effect of certain of the LTS excipients on the solubility of lemuteporfin.
# [3] = Stability of supersaturated/reconstituted lemuteporfin solutions up to 4 hours (filtered, HPLC); settings: up to 4 hours post-reconstitution
# Procedure: Samples of the compositions are taken at various time points after combining the photosensitizing component and the excipient component. Half of the samples are filtered to remove any precipitates, for example through a 0.22 μm filter. The filtered solutions are analyzed, for example, using HPLC, for the content or concentration of photosensitizer. If the solution is stable, and no photosensitizer has precipitated out, then the concentration of photosensitizer in the filtered solution should be roughly the same as the concentration of photosensitizer in the unfiltered solution, within experimental error.
# Three formulations (Batches C (Table 8), D (Table 9) and H (Table 10)) in which the Vial 1 photosensitizer component consisted of benzyl alcohol and lemuteporfin at three lemuteporfin concentrations, 0.1, 0.075 and 0.05% w/w in the final combined LTS solution were examined for stability after reconstitution with the remaining excipients in Vial 2.
# Vial 2 contents were added to vial 1 for each formulation, mixed and sampled at time 0 and 4 hours after reconstitution. The samples were filtered through a 0.22 μm filter before analysis by HPLC. This analysis was performed to ensure that the combined product had adequate stability and would not precipitate before administration to a subject. […]
substance,measurement,setting,value
lemuteporfin,Efficiency of DGME at dissolving lemuteporfin relative to benzyl alcohol,[1]; DGME versus benzyl alcohol,about 20%
same,"Solubility, % w/w Lemuteporfin","[1]; solvent % w/w: DGME 45, benzyl alcohol 45, oleyl alcohol 5, oleic acid 5",1.373 % w/w
same,"Solubility, % w/w Lemuteporfin","[1]; solvent % w/w: DGME 50, benzyl alcohol 15, oleic acid 35",0.230 % w/w
same,"Solubility, % w/w Lemuteporfin","[1]; solvent % w/w: DGME 50, benzyl alcohol 15, oleyl alcohol 35",0.200 % w/w
same,"Solubility, % w/w Lemuteporfin","[1]; solvent % w/w: DGME 50, benzyl alcohol 50",1.57 % w/w
same,"Solubility, % w/w Lemuteporfin","[1]; solvent % w/w: DGME 52, benzyl alcohol 16, oleyl alcohol 16, oleic acid 16",0.210 % w/w
same,"Solubility, % w/w Lemuteporfin","[1]; solvent % w/w: DGME 65, oleyl alcohol 17.5, oleic acid 17.5",0.271 % w/w
same,"Solubility, % w/w Lemuteporfin","[1]; solvent % w/w: DGME 65, oleyl alcohol 35",0.430 % w/w
same,"Solubility, % w/w Lemuteporfin","[1]; solvent % w/w: DGME 90, isopropyl myristate 10",0.430 % w/w
same,"Solubility, % w/w Lemuteporfin","[1]; solvent % w/w: DGME 90, oleyl alcohol 5, oleic acid 5",0.420 % w/w
same,"Solubility, % w/w Lemuteporfin","[1]; solvent % w/w: DGME 90, oleyl alcohol 10",0.420 % w/w
same,"Solubility, % w/w Lemuteporfin","[1]; solvent % w/w: benzyl alcohol 30, ethanol (190) 70",0.455 % w/w
same,"Solubility, % w/w Lemuteporfin","[1]; solvent % w/w: benzyl alcohol 30, oleyl alcohol 70",0.166 % w/w
same,"Solubility, % w/w Lemuteporfin","[1]; solvent % w/w: benzyl alcohol 40, isopropyl myristate 60",0.090 % w/w
same,"Solubility, % w/w Lemuteporfin","[1]; solvent % w/w: benzyl alcohol 50, ethanol (190) 50",0.453 % w/w
same,"Solubility, % w/w Lemuteporfin","[1]; solvent % w/w: benzyl alcohol 50, oleic acid 50",0.409 % w/w
same,"Solubility, % w/w Lemuteporfin","[1]; solvent % w/w: benzyl alcohol 50, oleyl alcohol 50",0.228 % w/w
same,"Solubility, % w/w Lemuteporfin","[1]; solvent % w/w: benzyl alcohol 50, propylene glycol 50",0.494 % w/w
same,"Solubility, % w/w Lemuteporfin","[1]; solvent % w/w: benzyl alcohol 90, isopropyl myristate 10",2.30 % w/w
same,"Solubility, % w/w Lemuteporfin","[1]; solvent % w/w: benzyl alcohol 90, oleic acid 10",2.33 % w/w
same,"Solubility, % w/w Lemuteporfin","[1]; solvent % w/w: benzyl alcohol 90, oleyl alcohol 5, oleic acid 5",2.22 % w/w
same,"Solubility, % w/w Lemuteporfin","[1]; solvent % w/w: benzyl alcohol 90, oleyl alcohol 10",2.24 % w/w
same,"Solubility, % w/w Lemuteporfin",[1]; solvent: benzyl alcohol 100 % w/w,2.55 % w/w
same,Solubility of lemuteporfin in the LTS solution system,[2]; isopropyl alcohol removed (data not shown),~0.07 % w/w
same,Amount of lemuteporfin that dissolved in the Table 4 components,[2]; room temperature,approximately 0.048%
same,"Lemuteporfin content (% w/w), dissolved in formulation of Table 4","[2]; room temperature, time point 0.17 hours",0.0241 % w/w
same,"Lemuteporfin content (% w/w), dissolved in formulation of Table 4","[2]; room temperature, time point 2.47 hours",0.0482 % w/w
same,"Lemuteporfin content (% w/w), dissolved in formulation of Table 4","[2]; room temperature, time point 4.37 hours",0.0453 % w/w
same,"Lemuteporfin content (% w/w), dissolved in formulation of Table 4","[2]; room temperature, time point 6.37 hours",0.0463 % w/w
same,"Lemuteporfin content (% w/w), dissolved in formulation of Table 4","[2]; room temperature, time point 23.5 hours",0.0370 % w/w
same,Solubility of lemuteporfin in the LTS solution system,[2]; with isopropyl alcohol (data not shown),approximately 0.03 % w/w
same,Solubility of lemuteporfin in the LTS solution system,[2]; with polysorbate 80 (data not shown),0.037 % w/w
same,Solubility of lemuteporfin in the LTS solution system,[2]; without polysorbate 80 (data not shown),0.027 % w/w
same,Precipitation after reconstitution,[3],has not precipitated out of solution
